Experimental data published in EP4752149A1, “OXYGEN-CONTAINING FUSED TRICYCLIC DERIVATIVE, AND PREPARATION METHOD THEREFOR AND USE THEREOF” (Tuojie Biotech (Shanghai) Co., Ltd., priority 2023, dated 2025).
Blank lines part the entries; values can stand above or below the compound they belong to.

Tests used:
Assay type in all cases: cell-based
[1] = system: Triple-negative breast cancer cells (HCC1806); test: Inhibitory activity against triple-negative breast cancer cells (HCC1806), CTG cell viability; settings: 7 days with compound
Method: Triple-negative breast cancer cells (HCC1806, Nanjing Cobioer Biosciences Co., Ltd.) were cultured using an RPMI 1640 culture medium containing 10% FBS in a cell incubator (37 °C, 5% CO2). On day one, the cells were plated in a 384-well plate at a cell concentration of 200 cells/well and cultured overnight in an incubator. On day two, the cells were treated with compounds. The highest compound concentration was 10 µM and was diluted 3-fold to obtain 9 concentrations, and the final concentration of DMSO was 0.2%. After the cells were cultured in the incubator for another 7 days, the cell viability was tested using a CTG Cell Viability Detection Reagent (MCE); the testing method was consistent with the method provided by the kit. Data were processed using XLfit, and IC50 was calculated. [formula] X: the logarithm of the compound concentration; Y: inhibition%. Table 4. The IC50 (nM) of compounds of the present disclosure against HCC1806

[2] = system: Ovarian cancer cells (OVCAR3); test: Inhibitory activity against ovarian cancer cells (OVCAR3), CTG cell viability; settings: Homo sapiens, OVCAR-3, 168 h, 7 days with compound
Method: Ovarian cancer cells (OVCAR3) were cultured using an RPMI 1640 culture medium containing 10% FBS in a cell incubator (37 °C, 5% CO2). On day one, the cells were plated in a 384-well plate at a cell concentration of 800 cells/well and cultured overnight in an incubator. On day two, the cells were treated with compounds. The highest compound concentration was 10 µM and was diluted 3-fold to obtain 9 concentrations, and the final concentration of DMSO was 0.1%. After the cells were cultured in the incubator for another 7 days, the cell viability was tested using a CTG Cell Viability Detection Reagent (MCE); the testing method was consistent with the method provided by the kit. Data were processed using GraphPad Prism 8, and IC50 was calculated. [formula] X: the logarithm of the compound concentration; Y: inhibition%. Table 2. The IC50 (nM) of compounds of the present disclosure against OVCAR3

[3] = system: MCF-7/Palbo-R; test: Inhibitory activity against CDK4/6 inhibitor-resistant human breast cancer cells (MCF-7 palbociclib-resistant cell line), cell viability; settings: 5 days with compound, CellTiter-Glo cell viability
Method: MCF-7/Palbo-R cell source: MCF7 cells (Nanjing Cobioer Biosciences Co., Ltd.) were treated with 1 µM palbociclib for a long time, and drug resistance was induced.
The palbociclib-resistant breast cancer cell line MCF-7/Palbo-R was cultured using a DMEM culture medium containing 10% FBS in a cell incubator (37 °C, 5% CO2). On day one, the cells were plated in a 384-well plate at a cell concentration of 800 cells/well and cultured overnight in an incubator. On day two, the cells were treated with compounds. The highest compound concentration was 10 µM and was diluted 3-fold to obtain 9 concentrations, and the final concentration of DMSO was 0.2%. After the cells were cultured in the incubator for another 5 days, the cell viability was tested using a CellTiter-Glo luminescent cell viability assay kit; the testing method was consistent with the method provided by the kit. Data were processed using XLfit, and IC50 was calculated.
The inhibition rates (IR) of the test compounds were calculated using the following formula: IR (%) = (1 - (RLU compound - RLU blank control) / (RLU vehicle control-RLU blank control)) × 100%. Table 16. The IC50 (nM) of a compound of the present disclosure against MCF-7/Palbo-R

[4] = system: Human breast cancer cells (MDA-MB-231); test: Inhibitory activity against human breast cancer cells (MDA-MB-231), CTG cell viability; settings: 7 days with compound
Method: (§1) Human breast cancer cells (MDA-MB-231) were cultured using a DMEM culture medium containing 10% FBS in a cell incubator (37 °C, 5% CO2). On day one, the cells were plated in a 384-well plate at a cell concentration of 600 cells/well and cultured overnight in an incubator. On day two, the cells were treated with compounds. The highest compound concentration was 10 µM and was diluted 3-fold to obtain 9 concentrations, and the final concentration of DMSO was 0.2%. After the cells were cultured in the incubator for another 7 days, the cell viability was tested using a CTG Cell Viability Detection Reagent; the testing method was consistent with the method provided by the kit. Data were processed using XLFit, and IC50 was calculated. [formula] X: the logarithm of the compound concentration; Y: % inhibition. Table 8. The IC50 (nM) of a compound of the present disclosure against MDA-MB-231

[5] = system: Human breast cancer cells (SUM-149PT); test: Inhibitory activity against human breast cancer cells (SUM-149PT), CTG cell viability; settings: 5 days with compound
Method: as §1, with “cells (SUM-149PT)” for “cells (MDA-MB-231)”, “of 800” for “of 600”, “another 5” for “another 7”, “Table 14.” for “Table 8.”, “against SUM-149PT” for “against MDA-MB-231”

[6] = system: Human non-small cell lung cancer cells (A549); test: Inhibitory activity against human non-small cell lung cancer cells (A549), CTG cell viability; settings: 5 days with compound
Method: (§2) Human non-small cell lung cancer cells (A549) were cultured using an F12K culture medium containing 10% FBS in a cell incubator (37 °C, 5% CO2). On day one, the cells were plated in a 384-well plate at a cell concentration of 300 cells/well and cultured overnight in an incubator. On day two, the cells were treated with compounds. The highest compound concentration was 10 µM and was diluted 3-fold to obtain 9 concentrations, and the final concentration of DMSO was 0.2%. After the cells were cultured in the incubator for another 5 days, the cell viability was tested using a CTG Cell Viability Detection Reagent; the testing method was consistent with the method provided by the kit. Data were processed using XLFit, and IC50 was calculated. [formula] X: the logarithm of the compound concentration; Y: % inhibition. Table 10. The IC50 (nM) of a compound of the present disclosure against A549

[7] = system: Human prostate cancer cells (22RV1); test: Inhibitory activity against human prostate cancer cells (22RV1), CTG cell viability; settings: 5 days with compound
Method: as §2, with “prostate” for “non-small cell lung”, “(22RV1)” for “(A549)”, “RPMI 1640” for “F12K”, “500” for “300”, “12.” for “10.”, “22RV1” for “A549”

Compound: CNS(=O)(=O)c1ccc(Nc2ncc(Cl)c(-c3cc(F)c4nc(C(C)(C)O)n5c4c3OC[C@@H]5C)n2)c(F)c1 [Example 7, (S)-4-((5-Chloro-4-(8-fluoro-2-(2-hydroxypropan-2-yl)-3-methyl-3,4-dihydro-5-oxa-1,2a-diazaacenaphthylen-6-yl)pyrimidin-2-yl)amino)-3-fluoro-N-methylbenzenesulfonamide]
IC50 ([1]; Homo sapiens, 168 h): 342 nM
IC50 [2]: 670 nM

Compound: COC(C)c1nc2c(F)cc(-c3nc(Nc4ccc(N5CCOCC5=O)cc4F)ncc3F)c3c2n1[C@@H](C)CO3 (stereo partly drawn) [Example 22, 4-(3-Fluoro-4-((5-fluoro-4-((3S)-8-fluoro-2-(1-methoxyethyl)-3-methyl-3,4-dihydro-5-oxa-1,2a-diazaacenaphthylen-6-yl)pyrimidin-2-yl)amino)phenyl)morpholin-3-one]
IC50 ([1]; Homo sapiens, 168 h): 406 nM
IC50 [2]: 825 nM

Compound: CC(C)c1nc2c(F)cc(-c3nc(Nc4ccc(N5CCOCC5=O)cc4F)ncc3F)c3c2n1[C@@H](C)CO3 [Example 27, (S)-4-(3-Fluoro-4-((5-fluoro-4-(8-fluoro-2-isopropyl-3-methyl-3,4-dihydro-5-oxa-1,2a-diazaacenaphthylen-6-yl)pyrimidin-2-yl)amino)phenyl)morpholin-3-one]
IC50 ([1]; Homo sapiens, 168 h): 303 nM
IC50 [2]: 572 nM

Compound: C[C@H]1COc2c(-c3nc(Nc4ccc(N5CCOCC5=O)cc4F)ncc3Cl)cc(F)c3nc(C4(O)CCCC4)n1c23 [Example 44, (S)-4-(4-((5-Chloro-4-(8-fluoro-2-(1-hydroxycyclopentyl)-3-methyl-3,4-dihydro-5-oxa-1,2a-diazaacenaphthylen-6-yl)pyrimidin-2-yl)amino)-3-fluorophenyl)morpholin-3-one]
IC50 ([1]; Homo sapiens, 168 h): 199 nM
IC50 [2]: 574 nM

Compound: CC(=O)c1c(C)c2cnc(Nc3ccc(N4CCNCC4)cn3)nc2n(C2CCCC2)c1=O [Palbociclib]
IC50 ([3]; Homo sapiens, MCF7, 120 h): > 2000 nM

The next lines start with the values.

IC50 [3]: 836 nM
IC50 [1]: 936 nM
IC50 [4]: 1250 nM
IC50 [5]: 1340 nM
IC50 [6]: 1130 nM
IC50 [7]: 2700 nM
Compound: COCc1cc(C(=O)Nc2cc([C@H]3CC[C@@H](OC(=O)NC(C)C)C3)[nH]n2)n(C)n1 [PF-07104091, reference compound]

IC50 [3]: 967 nM
IC50 [1]: 1590 nM
IC50 [4]: 567 nM
IC50 [6]: 1870 nM
Compound: CC(C)n1c(C(C)(C)O)nc2c(F)cc(-c3nc(N[C@@H]4CCOC[C@H]4O)ncc3Cl)cc21 [PF-07220060]
